Active and inactive are the calls of the source. The calls are words filed in the database; no cut-off is given here.
What was measured:
[1] = target: T1, Non-receptor tyrosine-protein kinase TYK2 (Homo sapiens, UniProt P29597); experiment: Binding affinity to recombinant human TYK2 JH2 (564 to 876-His residues) pseudokinase domain by fluorescence polarization assay
[2] = target: T2, Tyrosine-protein kinase JAK2 (Homo sapiens, UniProt O60674); settings: dose 30-200 µM
[3] = target: T2, Tyrosine-protein kinase JAK2; settings: dose 30-200 µM; remark: listed apart in the source
[4] = target: T2, Tyrosine-protein kinase JAK2; settings: dose 30-200 µM; remark: listed apart in the source
BaF3 [5] = experiment: Cytotoxicity against IL-3 dependent humanized mouse BaF3 cells expressing wild type human JAK2 assessed as inhibition of cell growth incubated for 48 hrs by alamarBlue assay; format: functional, cell-based
BaF3 [6] = experiment: Cytotoxicity against IL-3 dependent humanized mouse BaF3 cells expressing human JAK2 V617F mutant assessed as inhibition of cell growth incubated for 48 hrs by alamarBlue assay; format: functional, cell-based
[7] = target: T3, Tyrosine-protein kinase JAK1 (Homo sapiens, UniProt P23458); experiment: Binding affinity to recombinant human JAK1 JH2 (553 to 856-His residues) pseudokinase domain by fluorescence polarization assay
[8] = target: T3, Tyrosine-protein kinase JAK1; experiment: Binding affinity to recombinant human JAK1 kinase domain by fluorescence polarization assay
[9] = target: T3, Tyrosine-protein kinase JAK1; experiment: Inhibition of recombinant human JAK1 assessed as inhibition of substrate phosphorylation measured every 5 mins for 30 mins by LANCE Ultra kinase assay
[10] = target: T2, Tyrosine-protein kinase JAK2; experiment: Binding affinity to recombinant human JAK2 kinase domain by fluorescence polarization assay
[11] = target: T1, Non-receptor tyrosine-protein kinase TYK2; experiment: Binding affinity to recombinant human TYK2 kinase domain by fluorescence polarization assay
[12] = target: T2, Tyrosine-protein kinase JAK2; experiment: Inhibition of recombinant human JAK2 assessed as inhibition of substrate phosphorylation measured every 5 mins for 30 mins by LANCE Ultra kinase assay
[13] = target: T1, Non-receptor tyrosine-protein kinase TYK2; experiment: Inhibition of recombinant human TYK2 assessed as inhibition of substrate phosphorylation measured every 5 mins for 30 mins by LANCE Ultra kinase assay
[14] = target: T2, Tyrosine-protein kinase JAK2; experiment: Binding affinity to recombinant human JAK2 kinase domain (840 to 1132 residues) assessed as dissociation constant by ITC analysis
[15] = target: T2, Tyrosine-protein kinase JAK2; experiment: Inhibition of JAK2-mediated erythropoietin-induced STAT5 phosphorylation in human TF-1 cells pretreated for 60 mins followed by erythropoietin addition and measured after 15 mins by pacific orange/pacific blue NHS esters based Beckmann coulter flow cytometer; format: cell-based
[16] = target: T4, Tyrosine-protein kinase JAK3 (Homo sapiens, UniProt P52333); experiment: Binding affinity to recombinant human JAK3 kinase domain by fluorescence polarization assay
T4 sequence (P52333 whole entry): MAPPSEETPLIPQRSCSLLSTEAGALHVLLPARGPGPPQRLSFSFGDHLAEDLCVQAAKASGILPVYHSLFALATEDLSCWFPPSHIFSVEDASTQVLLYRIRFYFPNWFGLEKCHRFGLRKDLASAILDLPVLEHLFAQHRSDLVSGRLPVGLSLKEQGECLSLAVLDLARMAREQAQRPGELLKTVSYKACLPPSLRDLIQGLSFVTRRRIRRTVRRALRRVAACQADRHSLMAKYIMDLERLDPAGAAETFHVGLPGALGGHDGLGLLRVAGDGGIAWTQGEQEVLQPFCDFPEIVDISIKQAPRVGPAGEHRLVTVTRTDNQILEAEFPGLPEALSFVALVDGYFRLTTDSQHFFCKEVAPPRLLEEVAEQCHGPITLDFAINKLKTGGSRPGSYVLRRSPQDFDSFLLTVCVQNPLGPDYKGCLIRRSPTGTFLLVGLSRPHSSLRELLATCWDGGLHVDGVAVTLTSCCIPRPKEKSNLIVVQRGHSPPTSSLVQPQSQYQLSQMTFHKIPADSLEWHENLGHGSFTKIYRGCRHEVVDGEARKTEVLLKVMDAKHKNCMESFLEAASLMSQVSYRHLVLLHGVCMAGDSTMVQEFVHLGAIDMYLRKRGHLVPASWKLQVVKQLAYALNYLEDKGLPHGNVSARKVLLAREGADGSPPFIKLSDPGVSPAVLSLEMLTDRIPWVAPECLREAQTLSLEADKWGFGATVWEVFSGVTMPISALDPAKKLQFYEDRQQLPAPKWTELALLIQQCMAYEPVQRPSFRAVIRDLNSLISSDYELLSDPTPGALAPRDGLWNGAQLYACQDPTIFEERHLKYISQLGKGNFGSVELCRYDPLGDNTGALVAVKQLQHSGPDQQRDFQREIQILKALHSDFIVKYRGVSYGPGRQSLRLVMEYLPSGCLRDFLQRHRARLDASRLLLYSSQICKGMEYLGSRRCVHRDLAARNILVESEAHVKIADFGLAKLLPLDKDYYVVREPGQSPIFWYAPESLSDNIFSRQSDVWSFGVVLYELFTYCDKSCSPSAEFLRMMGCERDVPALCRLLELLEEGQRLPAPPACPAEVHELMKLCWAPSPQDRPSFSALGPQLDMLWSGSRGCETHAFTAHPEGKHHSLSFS

[17] = target: T4, Tyrosine-protein kinase JAK3; experiment: Inhibition of recombinant human JAK3 assessed as inhibition of substrate phosphorylation measured every 5 mins for 30 mins by LANCE Ultra kinase assay
[18] = target: T2, Tyrosine-protein kinase JAK2; experiment: Binding affinity to recombinant human JAK2 kinase domain (840 to 1132 residues) assessed as gibbs free energy change at 30 to 200 uM by fluorescence polarization measurement combined ITC analysis; settings: dose 30-200 µM
[19] = target: T2, Tyrosine-protein kinase JAK2; experiment: Binding affinity to recombinant human JAK2 kinase domain (840 to 1132 residues) assessed as dissociation constant by fluorescence polarization measurement combined ITC analysis
[20] = target: T2, Tyrosine-protein kinase JAK2; experiment: Binding affinity to recombinant human JAK2 kinase domain (840 to 1132 residues) assessed as change in enthalpy at 30 to 200 uM by fluorescence polarization measurement combined ITC analysis; settings: dose 30-200 µM
[21] = target: T2, Tyrosine-protein kinase JAK2; experiment: Binding affinity to recombinant human JAK2 kinase domain (840 to 1132 residues) assessed as change in entropy at 30 to 200 uM by fluorescence polarization measurement combined ITC analysis; settings: dose 30-200 µM
Homo sapiens [22] = organism: Homo sapiens; experiment: Selectivity index, ratio of IC50 for inhibition of JAK1/JAK3-mediated IL-2 induced STAT5 phosphorylation in human whole blood CD4+ T cells to IC50 for inhibition of JAK1/TYK2-mediated IFN-alpha induced STAT1 phosphorylation in whole blood CD33-positive monocytes; format: cell-based
Homo sapiens [23] = organism: Homo sapiens; experiment: Selectivity index, ratio of IC50 for inhibition of JAK1-mediated IL-6 induced STAT3 phosphorylation in human whole blood CD33-positive monocytes to IC50 for inhibition of JAK1/TYK2-mediated IFN-alpha induced STAT1 phosphorylation in whole blood CD33-positive monocytes; format: cell-based
Homo sapiens [24] = organism: Homo sapiens; experiment: Selectivity index, ratio of IC50 for inhibition of JAK1/JAK2-mediated IFNgamma-induced STAT1 phosphorylation in human whole blood CD33-positive monocytes to IC50 for inhibition of JAK1/TYK2-mediated IFN-alpha induced STAT1 phosphorylation in whole blood CD33-positive monocytes; format: cell-based
Homo sapiens [25] = organism: Homo sapiens; experiment: Selectivity index, ratio of IC50 for inhibition of JAK2-mediated GM-CSF-induced STAT5 phosphorylation in human whole blood CD33-positive monocytes to IC50 for inhibition of JAK1/TYK2-mediated IFN-alpha induced STAT1 phosphorylation in whole blood CD33-positive monocytes; format: cell-based
[26] = Selectivity index, ratio of IC50 for cytotoxicity against IL-3 dependent humanized mouse BaF3 cells expressing wild type human JAK2 to IC50 for cytotoxicity against IL-3 dependent humanized mouse BaF3 cells expressing human JAK2 V617F mutant; format: functional
Homo sapiens [27] = organism: Homo sapiens; experiment: Selectivity index, ratio of IC50 for recombinant human JAK1 kinase domain to IC50 for recombinant human JAK2 kinase domain

T1 sequence (P29597 whole entry, the tested form may be a part): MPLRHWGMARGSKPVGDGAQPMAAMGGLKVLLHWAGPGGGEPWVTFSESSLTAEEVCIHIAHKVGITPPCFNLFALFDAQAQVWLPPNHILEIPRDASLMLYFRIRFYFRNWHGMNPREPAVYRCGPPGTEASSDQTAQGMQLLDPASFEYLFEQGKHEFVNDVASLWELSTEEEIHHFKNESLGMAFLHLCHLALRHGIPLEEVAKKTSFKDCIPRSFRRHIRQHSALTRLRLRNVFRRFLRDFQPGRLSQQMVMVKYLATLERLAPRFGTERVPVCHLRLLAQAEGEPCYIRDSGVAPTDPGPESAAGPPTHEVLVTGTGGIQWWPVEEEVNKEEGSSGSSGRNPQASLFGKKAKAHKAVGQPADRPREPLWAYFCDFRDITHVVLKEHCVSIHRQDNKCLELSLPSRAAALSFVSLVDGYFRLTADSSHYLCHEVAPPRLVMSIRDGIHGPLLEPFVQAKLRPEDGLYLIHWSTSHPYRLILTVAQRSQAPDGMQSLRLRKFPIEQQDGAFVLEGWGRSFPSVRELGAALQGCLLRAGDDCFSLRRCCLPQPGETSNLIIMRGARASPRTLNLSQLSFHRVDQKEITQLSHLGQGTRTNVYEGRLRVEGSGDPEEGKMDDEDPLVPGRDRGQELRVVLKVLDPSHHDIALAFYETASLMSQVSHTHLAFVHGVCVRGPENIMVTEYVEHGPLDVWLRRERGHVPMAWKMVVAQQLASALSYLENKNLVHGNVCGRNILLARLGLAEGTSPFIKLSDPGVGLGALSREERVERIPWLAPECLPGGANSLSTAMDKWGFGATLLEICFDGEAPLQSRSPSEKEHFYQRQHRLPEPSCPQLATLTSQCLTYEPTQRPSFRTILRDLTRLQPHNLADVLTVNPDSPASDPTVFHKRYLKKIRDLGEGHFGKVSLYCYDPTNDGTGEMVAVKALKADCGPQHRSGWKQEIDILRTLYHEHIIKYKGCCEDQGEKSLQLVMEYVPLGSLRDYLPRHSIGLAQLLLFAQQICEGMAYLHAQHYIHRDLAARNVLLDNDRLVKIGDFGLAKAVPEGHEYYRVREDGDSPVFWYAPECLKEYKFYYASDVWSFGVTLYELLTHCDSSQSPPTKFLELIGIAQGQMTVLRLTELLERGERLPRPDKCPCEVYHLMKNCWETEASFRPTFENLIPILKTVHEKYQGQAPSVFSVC
T2 sequence (O60674 whole entry): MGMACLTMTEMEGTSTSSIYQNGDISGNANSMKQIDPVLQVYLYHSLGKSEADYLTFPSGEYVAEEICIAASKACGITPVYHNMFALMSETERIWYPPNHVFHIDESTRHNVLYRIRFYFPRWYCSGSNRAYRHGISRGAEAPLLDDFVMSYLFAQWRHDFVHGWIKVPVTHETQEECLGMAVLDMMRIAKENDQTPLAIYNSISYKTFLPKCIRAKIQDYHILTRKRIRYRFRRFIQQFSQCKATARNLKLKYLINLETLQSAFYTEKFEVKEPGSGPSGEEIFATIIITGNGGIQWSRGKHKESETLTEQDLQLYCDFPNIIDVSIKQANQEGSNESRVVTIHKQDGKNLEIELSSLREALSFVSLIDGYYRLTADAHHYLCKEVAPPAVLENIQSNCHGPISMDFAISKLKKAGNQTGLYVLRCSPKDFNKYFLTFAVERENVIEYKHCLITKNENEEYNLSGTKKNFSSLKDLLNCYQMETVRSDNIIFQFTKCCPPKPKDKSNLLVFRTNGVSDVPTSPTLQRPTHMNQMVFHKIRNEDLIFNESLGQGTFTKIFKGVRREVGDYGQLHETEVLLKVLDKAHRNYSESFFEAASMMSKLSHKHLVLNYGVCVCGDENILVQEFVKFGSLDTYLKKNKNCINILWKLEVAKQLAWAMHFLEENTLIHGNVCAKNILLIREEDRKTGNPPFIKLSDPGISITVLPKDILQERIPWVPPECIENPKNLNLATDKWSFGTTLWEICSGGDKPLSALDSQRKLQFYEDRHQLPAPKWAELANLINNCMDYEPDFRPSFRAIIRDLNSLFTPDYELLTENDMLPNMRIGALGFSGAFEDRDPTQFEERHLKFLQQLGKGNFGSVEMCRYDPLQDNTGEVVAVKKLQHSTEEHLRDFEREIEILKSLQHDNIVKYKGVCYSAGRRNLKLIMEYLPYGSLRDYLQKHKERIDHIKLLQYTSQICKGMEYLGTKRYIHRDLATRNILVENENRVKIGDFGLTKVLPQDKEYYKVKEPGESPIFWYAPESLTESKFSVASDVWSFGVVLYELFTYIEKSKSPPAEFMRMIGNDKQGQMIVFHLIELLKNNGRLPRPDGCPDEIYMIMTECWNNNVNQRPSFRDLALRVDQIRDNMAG
T3 sequence (P23458 whole entry, the tested form may be a part): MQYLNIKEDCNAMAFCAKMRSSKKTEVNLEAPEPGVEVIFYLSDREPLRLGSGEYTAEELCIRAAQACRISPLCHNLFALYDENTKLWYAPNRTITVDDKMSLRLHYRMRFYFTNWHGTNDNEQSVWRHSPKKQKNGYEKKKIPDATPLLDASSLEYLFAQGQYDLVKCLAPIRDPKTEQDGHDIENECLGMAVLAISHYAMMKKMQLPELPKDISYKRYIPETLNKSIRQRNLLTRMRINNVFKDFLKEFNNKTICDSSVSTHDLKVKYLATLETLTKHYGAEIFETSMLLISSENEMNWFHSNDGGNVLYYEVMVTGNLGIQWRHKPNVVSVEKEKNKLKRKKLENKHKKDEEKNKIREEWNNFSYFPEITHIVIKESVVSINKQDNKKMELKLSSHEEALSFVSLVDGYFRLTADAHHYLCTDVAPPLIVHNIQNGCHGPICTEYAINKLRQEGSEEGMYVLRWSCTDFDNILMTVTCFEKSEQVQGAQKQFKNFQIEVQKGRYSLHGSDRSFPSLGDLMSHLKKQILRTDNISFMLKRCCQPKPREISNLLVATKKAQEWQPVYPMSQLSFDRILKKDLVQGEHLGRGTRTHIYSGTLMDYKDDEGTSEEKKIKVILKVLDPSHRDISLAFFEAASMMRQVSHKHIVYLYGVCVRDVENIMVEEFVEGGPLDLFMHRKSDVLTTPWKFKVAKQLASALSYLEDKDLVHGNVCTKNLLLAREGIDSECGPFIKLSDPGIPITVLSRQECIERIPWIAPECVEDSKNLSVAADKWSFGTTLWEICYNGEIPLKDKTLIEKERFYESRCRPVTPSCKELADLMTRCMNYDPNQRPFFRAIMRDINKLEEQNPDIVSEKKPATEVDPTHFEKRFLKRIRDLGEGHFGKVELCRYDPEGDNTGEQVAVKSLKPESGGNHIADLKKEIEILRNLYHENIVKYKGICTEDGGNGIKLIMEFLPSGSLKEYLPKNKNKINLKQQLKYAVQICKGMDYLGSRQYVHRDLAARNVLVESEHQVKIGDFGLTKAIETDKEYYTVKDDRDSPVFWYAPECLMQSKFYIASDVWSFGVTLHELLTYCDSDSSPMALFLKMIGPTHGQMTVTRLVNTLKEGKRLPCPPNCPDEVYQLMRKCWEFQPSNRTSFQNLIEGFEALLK

| SMILES | deltaG [2] [kcal/mol] | deltaH [3] [kcal/mol] | -TdeltaS [4] [kcal/mol] | Kd [8] [nM] | IC50 [9] [nM] | Kd [10] [nM] | Kd [11] [nM] | IC50 [12] [nM] | IC50 [13] [nM] | IC50 [15] [nM] | further results |
| --- | --- | --- | --- | --- | --- | --- | --- | --- | --- | --- | --- |
| C1=N/C2=N/c3ccc(OCCN4CCCC4)c(c3)COC/C=C/COCc3cccc(c3)C(=C1)N2 | -10.9 | -7.6 | -3.3 |  |  |  |  |  |  |  | Activity [1]: Active |
| C[C@]12O[C@H](C[C@]1(O)CO)n1c3ccccc3c3c4c(c5c6ccccc6n2c5c31)CNC4=O |  |  |  |  |  |  |  |  |  |  | Activity (BaF3 [5]): Active; Activity (BaF3 [6]): Active |
| N#CCNC(=O)c1ccc(-c2ccnc(Nc3ccc(N4CCOCC4)cc3)n2)cc1 | -11.3 | -14.4 | 3.2 |  |  |  |  |  |  |  |  |
| N#CC[C@H](C1CCCC1)n1cc(-c2ncnc3[nH]ccc23)cn1 |  |  |  |  |  |  |  |  |  |  | Activity (BaF3 [5]): Active; Activity (BaF3 [6]): Active |
| O=C(Nc1c[nH]nc1-c1nc2ccc(CN3CCOCC3)cc2[nH]1)NC1CC1 |  |  |  |  |  |  |  |  |  |  | Activity [7]: Active; Activity [1]: Active |
| O=C(Nc1c[nH]nc1-c1nc2cc(CN3CCOCC3)ccc2[nH]1)NC1CC1 [AT-9283] |  |  |  | 37 | 65 |  |  |  |  |  |  |
| CCS(=O)(=O)N1CCN(c2ccc(Nc3ncc(C(N)=O)c(NC4CC4)n3)cc2)CC1 [CERDULATINIB] | -10.8 | -10.4 | -0.4 | 23 | 22 | 4.8 | 6.9 | 11 | 26 | 99 | Activity [7]: Active; Activity [1]: Active; Kd [14]: 8.9 nM |
| Cc1cc(Nc2cc(CN3CCOCC3)c3nc(C)c(Cc4ccc(Cl)cc4F)n3n2)n[nH]1 [GANDOTINIB] |  |  |  | 8.2 | 7.3 | 11 | 16 | 6.2 | 92 | 155 | Kd [16]: 13 nM; IC50 [17]: 199 nM; deltaG [18]: -10.7 kcal/mol; Kd [19]: 11 nM; deltaH [20]: -4.1 kcal/mol; -TdeltaS [21]: -6.6 kcal/mol; Ratio IC50 (Homo sapiens [22]): 1.1; Ratio IC50 (Homo sapiens [23]): 4; Ratio IC50 (Homo sapiens [24]): 2.3; Ratio IC50 (Homo sapiens [25]): 7.5; Ratio IC50 [26]: 1.5 |
| N#CCC1(n2cc(-c3ncnc4[nH]ccc34)cn2)CN(C2CCN(C(=O)c3ccnc(C(F)(F)F)c3F)CC2)C1 [ITACITINIB] | -10.7 | -5.4 | -5.4 | 51 | 3.4 | 26 | 385 | 54 | 4100 | 488 | Kd [16]: 324 nM; IC50 [17]: 10800 nM; Kd [14]: 10.7 nM; Ratio IC50 (Homo sapiens [22]): 0.4; Ratio IC50 (Homo sapiens [23]): 1.2; Ratio IC50 (Homo sapiens [24]): 0.8; Ratio IC50 (Homo sapiens [25]): 16.7 |
| C[C@H](Nc1cc(-c2cnn(C)c2)cc(Nc2cnccn2)n1)c1ccc(F)cc1 [NS-018] | -11.3 | -12.5 | 1.2 | 16 | 7.1 | 4.5 | 21 | 0.8 | 216 | 41 | Kd [16]: 19 nM; IC50 [17]: 182 nM; Ratio IC50 (Homo sapiens [27]): 9; Kd [14]: 4 nM; Ratio IC50 (Homo sapiens [22]): 1.7; Ratio IC50 (Homo sapiens [23]): 2.8; Ratio IC50 (Homo sapiens [24]): 0.6; Ratio IC50 (Homo sapiens [25]): 5.8 |
| C1=C/COCc2cc(ccc2OCCN2CCCC2)Nc2nccc(n2)-c2cccc(c2)COC/1 [PACRITINIB] |  |  |  | 318 | 371 |  | 125 |  | 536 |  |  |
